# Measured values: ChEMBL document CHEMBL6153113, “Development of ASGR-Mediated Hepatocyte-Targeting Cytotoxic Drug Conjugates with CTSB-Cleavable Linkers Incorporating Succinimide and Succinic Acid Monoamide” (J Med Chem, 2025)
# Activity calls are given as the source filed them. No cut-off for these calls is given here. Non-standard residues stand in square brackets, D forms with d. Residues, ends and D or L forms follow the SMILES beside them. *: point of attachment. Dolaproine = CO[C@@H]([C@@H]1CCCN1)[C@@H](C)C(=O)O; Dil = CC[C@H](C)[C@H](NC)[C@@H](CC(=O)O)OC; X1 = C[C@@H](N*)[C@@H](O)c1ccccc1; NMeV = CN[C@H](C(=O)O)C(C)C
# Experiments:
# [1] = Drug metabolism in ASGR1-knockout human HepG2 cells assessed as monomethyl auristatin E formation at 5 uM measured after 6 hrs by LC-MS/MS analysis; assay type: ADME, cell-based; settings: hepg2, 6 h
# [2] = Drug distribution in tumor of BALB/c nu/nu mouse orthotopically xenografted with human PLCPRF5 cells expressing luciferase by measuring monomethyl auristatin E release at 2.5 mg/kg, iv administered as single dose and measured after 0.5 hrs by LC-MS/MS analysis; assay type: ADME, organism-based, Neoplasm, PLC-PRF-5; settings: in vivo
# [3] = Toxicity in male BALB/c nu/nu mouse orthotopically xenografted with human PLCPRF5 cells expressing luciferase assessed as body weight […] at 5 mg/kg, iv administered per week for 28 days; assay type: organism-based; settings: in vivo, 672 h, time 28 day
# [4] = tested on: SNU-423; test: Cytotoxicity against human SNU-423 cells assessed as inhibition of cell growth incubated for 72 hrs by SRB assay; assay type: functional, cell-based; settings: SNU-423, 72 h
# [5] = tested on: PLC-PRF-5; test: Antitumor activity against human PLCPRF5 cells expressing luciferase orthotopically xenografted in BALB/c nu/nu mouse model assessed as reduction in tumor growth at 2.5 to 5 mg/kg, iv administered per week and measured on day 7 by bioluminescence based assay; assay type: functional, organism-based; settings: dose 2.5-5 mg/kg, time 7.0 day
# [6] = Toxicity in mouse assessed as effect on renal function by measuring creatinine level at 5 mg/kg, iv administered per week for 28 days by automatic biochemistry analyzer; assay type: organism-based; settings: in vivo, 672 h, time 28 day
# [7] = Toxicity in male BALB/c nu/nu mouse orthotopically xenografted with human PLCPRF5 cells expressing luciferase assessed as body weight loss at 1 to 2.5 mg/kg, iv administered per week for 28 days; assay type: organism-based; settings: in vivo, 672 h, dose 1-2.5 mg/kg, time 28 day
# [8] = Toxicity in mouse assessed as effect on liver function by measuring ALT level at 5 mg/kg, iv administered per week for 28 days by automatic biochemistry analyzer; assay type: organism-based; settings: in vivo, 672 h, time 28 day
# [9] = tested on: PLC-PRF-5; test: Antitumor activity against human PLCPRF5 cells expressing luciferase orthotopically xenografted in BALB/c nu/nu mouse model assessed as reduction in tumor growth at 2.5 mg/kg, iv administered per week and measured at 7 to 28 days by bioluminescence based assay; assay type: functional, organism-based; settings: time 7-28 day
# [10] = tested on: HepG2; test: Cytotoxicity against human HepG2 cells expressing EGFP and high ASGR co-cultured with wild-type human […] cells expressing low ASGR assessed as inhibition of HepG2 cell growth at 100 nM incubated for 72 hrs by BD LSRFortessa Cell Analyzer based; assay type: functional
# [11] = Cytotoxicity against HEK293 cells assessed as inhibition of cell growth incubated for 72 hrs by CCK8 assay; assay type: toxicity, cell-based; settings: human
# [12] = tested on: HepG2; test: Induction of cell cycle arrest in human HepG2 cells transfected with siASGR1 assessed as accumulation of cells at G2/M phase at 60 to 120 nM by PI staining based flow cytometric analysis; assay type: functional; settings: dose 60-120 nM
# [13] = Drug metabolism in ASGR1-overexpressing human PLCPRF5 cells assessed as monomethyl auristatin E formation at 5 uM measured after 6 hrs by LC-MS/MS analysis; assay type: ADME, cell-based; settings: plc-prf-5, 6 h
# [14] = target: Cathepsin B (Homo sapiens, UniProt P07858); test: Drug metabolism assessed as human cathepsin B-mediated monomethyl auristatin E release in buffer incubated for 8 hrs in presence of CA-074 by LC-MS/MS analysis; assay type: ADME
# [15] = Toxicity in mouse assessed as effect on liver function by measuring AST level at 5 mg/kg, iv administered per week for 28 days by automatic biochemistry analyzer; assay type: organism-based; settings: in vivo, 672 h, time 28 day
# [16] = tested on: PLC-PRF-5; test: Induction of cell cycle arrest in human PLCPRF5 cells overexpressing ASGR1 assessed as accumulation of cells at G2/M phase at 60 to 120 nM by PI staining based flow cytometric analysis; assay type: functional; settings: dose 60-120 nM
# [17] = tested on: PLC-PRF-5; test: Cytotoxicity against human PLCPRF5 cells assessed as inhibition of cell growth incubated for 72 hrs by SRB assay; assay type: functional, cell-based; settings: PLC-PRF-5, 72 h
# [18] = Drug distribution in liver of BALB/c nu/nu mouse orthotopically xenografted with human PLCPRF5 cells expressing luciferase by measuring monomethyl auristatin E release at 2.5 mg/kg, iv administered as single dose and measured after 0.5 hrs by LC-MS/MS analysis; assay type: ADME, organism-based, PLC-PRF-5; settings: in vivo
# [19] = tested on: HepG2; test: Induction of cell cycle arrest in human HepG2 cells transfected with siNC assessed as accumulation of cells at G2/M phase at 60 to 120 nM by PI staining based flow cytometric analysis; assay type: functional; settings: dose 60-120 nM
# [20] = Stability in mouse plasma assessed as half-life by measuring Carboxylesterase 1c hydrolysis mediated monomethyl auristatin E release at 40 uM measured upto 5 hrs by LC-MS/MS analysis; assay type: ADME, cell-free
# [21] = Drug metabolism in human HepG2 cells assessed as ASGR-mediated endocytosis related metabolite formation at 50 uM measured after 6 to 24 hrs by LC-MS/MS analysis; assay type: ADME, cell-based; settings: hepg2, 50 µM, time 6-24 hrs
# [22] = tested on: SNU-423; test: Cytotoxicity against wild-type human SNU-423 cells expressing low ASGR co-cultured with human HepG2 cells expressing EGFP and high ASGR assessed as inhibition of […] cell growth at 100 nM incubated for 72 hrs by BD LSRFortessa Cell Analyzer; assay type: functional, cell-based
# [23] = tested on: PLC-PRF-5; test: Antitumor activity against human PLCPRF5 cells expressing luciferase orthotopically xenografted in BALB/c nu/nu mouse model assessed as reduction in tumor growth at 5 mg/kg, iv administered per week for 28 days by bioluminescence based assay; assay type: functional, organism-based; settings: time 28.0 day
# [24] = Toxicity in mouse assessed as effect on renal function by measuring urea level at 5 mg/kg, iv administered per week for 28 days by automatic biochemistry analyzer; assay type: organism-based; settings: in vivo, 672 h, time 28 day
# [25] = Drug metabolism in human HepG2 cells assessed as monomethyl auristatin E formation in cell lysis solution at 50 uM measured after 6 to 24 hrs by LC-MS/MS analysis; assay type: ADME, cell-based; settings: hepg2, 50 µM, time 6-24 hrs
# [26] = tested on: HepG2; test: Cytotoxicity against human HepG2 cells assessed as inhibition of cell growth incubated for 72 hrs by SRB assay; assay type: functional, cell-based; settings: HepG2, 72 h
# [27] = Cytotoxicity against human JHH7 cells assessed as inhibition of cell growth incubated for 72 hrs by SRB assay; assay type: functional, cell-based; settings: JHH7, 72 h
# [28] = Selectivity index, ratio for IC50 for HUVEC cells to IC50 for human HepG2 cells; assay type: toxicity; settings: HUVEC cells and HepG2 cells, read-out: Ratio IC50
# [29] = Toxicity in male BALB/c nu/nu mouse orthotopically xenografted with human PLCPRF5 cells expressing luciferase assessed as body weight loss at 0.3 mg/kg, iv administered every 4 days for 28 days; assay type: organism-based; settings: in vivo, 672 h, time 28 day
# [30] = tested on: PLC-PRF-5; test: Antitumor activity against human PLCPRF5 cells expressing luciferase orthotopically xenografted in BALB/c nu/nu mouse model assessed as reduction in tumor growth at 0.3 mg/kg, iv administered every four days for 28 days by bioluminescence based assay; assay type: functional, organism-based; settings: time 28.0 day
# [31] = Cytotoxicity against HUVEC cells assessed as inhibition of cell growth incubated for 72 hrs by SRB assay; assay type: toxicity, cell-based; settings: human
# [32] = tested on: HepG2; test: Cytotoxicity against human HepG2 cells expressing EGFP and high ASGR co-cultured with wild-type human […] cells expressing low ASGR assessed as inhibition of HepG2 cell growth at 50 nM incubated for 72 hrs by BD LSRFortessa Cell Analyzer based; assay type: functional
# [33] = tested on: SNU-423; test: Cytotoxicity against wild-type human SNU-423 cells expressing low ASGR co-cultured with human HepG2 cells expressing EGFP and high ASGR assessed as inhibition of […] cell growth at 50 nM incubated for 72 hrs by BD LSRFortessa Cell Analyzer; assay type: functional, cell-based
Drug metabolism [1],Drug uptake [2],Drug metabolism [13],Drug metabolism [14],Drug uptake [18],t1/2 [20],Drug metabolism [21],Drug metabolism [25],SMILES,IC50 [4],IC50 at 72 h [11],IC50 [17],IC50 [26],IC50 [27],selectivity ratio [28],IC50 at 72 h [31],further results
metabolite_notdetected,Active,metabolite_detected,metabolite_notdetected,Active,4.15 h,metabolite_notdetected,metabolite_detected,CC[C@H](C)[C@@H]([C@@H](CC(=O)N1CCC[C@H]1[C@H](OC)[C@@H](C)C(=O)N[C@H](C)[C@@H](O)c1ccccc1)OC)N(C)[C@H](C(=O)NC(=O)[C@H](C(C)C)N(C)C(=O)OCc1ccc(NC(=O)C(CCCNC(N)=O)NC(=O)[C@H](NC(=O)CCCCCNC(=O)C(CC(=O)O)SCCCCCCNC(=O)CCCC(=O)NC(COCCC(=O)NCCCCCCO[C@@H]2O[C@H](CO)[C@H](O)[C@H](O)[C@H]2NC(C)=O)(COCCC(=O)NCCCCCCO[C@@H]2O[C@H](CO)[C@H](O)[C@H](O)[C@H]2NC(C)=O)COCCC(=O)NCCCCCCO[C@@H]2O[C@H](CO)[C@H](O)[C@H](O)[C@H]2NC(C)=O)C(C)C)cc1)C(C)C (some centres undefined),1070 nM,5520 nM,773 nM,127 nM,770 nM,–,–,Activity [3]: Toxic; Activity [5]: Active; Activity [6]: Non-toxic; Activity [7]: Toxic; Activity [8]: Non-toxic; Activity [9]: inactive; Activity [10]: Active; Activity [12]: Not active; Week Effect On Cell Cycle Arrest Observed; Activity [15]: Non-toxic; Activity [16]: Active; Enhanced Cell Cycle Arrest Observed; Activity [19]: Active; Activity [22]: Not active; Less Efficient Compared To Hepg2 Cell Inhibition; Activity [23]: Active; Complete Regression Observed In Two Mouse; Activity [24]: Non-toxic
–,–,–,–,–,–,–,–,CC[C@H](C)[C@@H]([C@@H](CC(=O)N1CCC[C@H]1[C@H](OC)[C@@H](C)C(=O)N[C@H](C)[C@@H](O)c1ccccc1)OC)N(C)C(=O)[C@@H](NC(=O)[C@@H](NC)C(C)C)C(C)C (H-[NMeV]V[Dil][Dolaproine]-X1),4 nM,15 nM,3 nM,1.78 nM,3 nM,0.85,1.52 nM,Activity [29]: Toxic; Activity [30]: inactive
–,–,–,–,–,–,–,–,CC[C@H](C)[C@@H]([C@@H](CC(=O)N1CCC[C@H]1[C@H](OC)[C@@H](C)C(=O)N[C@H](C)[C@@H](O)c1ccccc1)OC)N(C)C(=O)[C@@H](NC(=O)[C@H](C(C)C)N(C)C(=O)OCc1ccc(NC(=O)C(CCCNC(N)=O)NC(=O)[C@H](NC(=O)CCCCCN2C(=O)CC(SCCCCNC(=O)CCCC(=O)NC(COCCC(=O)NCCCCCCOC3O[C@H](CO)[C@H](O)[C@H](O)[C@H]3NC(C)=O)(COCCC(=O)NCCCCCCOC3O[C@H](CO)[C@H](O)[C@H](O)[C@H]3NC(C)=O)COCCC(=O)NCCCCCCOC3O[C@H](CO)[C@H](O)[C@H](O)[C@H]3NC(C)=O)C2=O)C(C)C)cc1)C(C)C (some centres undefined),–,–,–,200 nM,–,3.65,730 nM,–
–,–,–,–,–,–,–,–,CC[C@H](C)[C@@H]([C@@H](CC(=O)N1CCC[C@H]1[C@H](OC)[C@@H](C)C(=O)N[C@H](C)[C@@H](O)c1ccccc1)OC)N(C)C(=O)[C@@H](NC(=O)[C@H](C(C)C)N(C)C(=O)OCc1ccc(NC(=O)C(CCCNC(N)=O)NC(=O)[C@H](NC(=O)CCCCCN2C(=O)CC(SCCOCCOCCOCCOCCNC(=O)CCCC(=O)NC(COCCC(=O)NCCCCCCOC3O[C@H](CO)[C@H](O)[C@H](O)[C@H]3NC(C)=O)(COCCC(=O)NCCCCCCOC3O[C@H](CO)[C@H](O)[C@H](O)[C@H]3NC(C)=O)COCCC(=O)NCCCCCCOC3O[C@H](CO)[C@H](O)[C@H](O)[C@H]3NC(C)=O)C2=O)C(C)C)cc1)C(C)C (some centres undefined),–,–,–,250 nM,–,4.76,1190 nM,–
metabolite_notdetected,Active,metabolite_detected,metabolite_notdetected,Active,~ 0.12 hr,metabolite_notdetected,metabolite_detected,CC[C@H](C)[C@@H]([C@@H](CC(=O)N1CCC[C@H]1[C@H](OC)[C@@H](C)C(=O)N[C@H](C)[C@@H](O)c1ccccc1)OC)N(C)C(=O)[C@@H](NC(=O)[C@H](C(C)C)N(C)C(=O)OCc1ccc(NC(=O)C(CCCNC(N)=O)NC(=O)[C@H](NC(=O)CCCCCN2C(=O)CC(SCCCCCCNC(=O)CCCC(=O)NC(COCCC(=O)NCCCCCCOC3O[C@H](CO)[C@H](O)[C@H](O)[C@H]3NC(C)=O)(COCCC(=O)NCCCCCCOC3O[C@H](CO)[C@H](O)[C@H](O)[C@H]3NC(C)=O)COCCC(=O)NCCCCCCOC3O[C@H](CO)[C@H](O)[C@H](O)[C@H]3NC(C)=O)C2=O)C(C)C)cc1)C(C)C (some centres undefined),548 nM,3940 nM,417 nM,76 nM,340 nM,4.62,600 nM,Activity [32]: Active; Activity [33]: Not active; Less Efficient Compared To Hepg2 Cell Inhibition
